In patent US20230017045A1, “PYRIDINE AND PYRIMIDINE CARBOXYLATE HERBICIDES AND METHODS OF USE THEREOF” (Dow AgroSciences LLC, priority 2017, published 2023):

Each molecule was assayed on test plant species (assay: Post-emergent herbicidal activity test (greenhouse, foliar spray, visual growth reduction)). Settings: post-emergence, 336 h, ALOMY: blackgrass (Alopecurus myosuroides), 140 g ai/ha, 14 days after application, read-out: Visual Growth Reduction (%) 14 Days After Application, ALOMY.
Format: in vivo
Summary of the method: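 Scoring used a 0 to 100 percent visual scale of growth reduction against solvent-treated controls, read 14 d after spraying. Applications went onto plants at first or second true leaf stage, 187 L/ha, with crop oil concentrate and X-77 surfactant in the carrier. Post-treatment watering was by subirrigation to avoid wash-off.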

Row | Structure (SMILES) | pest or weed control at 140 g/ha [%]
1 | COCC(F)(F)c1ccc(-c2ccc(Cl)c(C(=O)O)n2)c(Cl)c1 [F179, 3-chloro-6-(2-chloro-4-(1,1-difluoro-2-methoxyethyl)phenyl)picolinic acid] | 0 to 29

Same assay, conditions: post-emergence, 336 h, AMARE: redroot pigweed (Amaranthus retroflexus), 140 g ai/ha, 14 days after application, read-out: Visual Growth Reduction (%) 14 Days After Application, AMARE

Row | Structure (SMILES) | pest or weed control at 140 g/ha [%]
2 | COCC(F)(F)c1ccc(-c2ccc(Cl)c(C(=O)O)n2)c(Cl)c1 [F179, 3-chloro-6-(2-chloro-4-(1,1-difluoro-2-methoxyethyl)phenyl)picolinic acid] | 60 to 74

Same assay, conditions: post-emergence, 336 h, AVEFA: wild oat (Avena fatua), 140 g ai/ha, 14 days after application, read-out: Visual Growth Reduction (%) 14 Days After Application, AVEFA

Row | Structure (SMILES) | pest or weed control at 140 g/ha [%]
3 | COCC(F)(F)c1ccc(-c2ccc(Cl)c(C(=O)O)n2)c(Cl)c1 [F179, 3-chloro-6-(2-chloro-4-(1,1-difluoro-2-methoxyethyl)phenyl)picolinic acid] | 0 to 29

Same assay, conditions: post-emergence, 336 h, CHEAL: lambsquarters (Chenopodium album), 140 g ai/ha, 14 days after application, read-out: Visual Growth Reduction (%) 14 Days After Application, CHEAL

Row | Structure (SMILES) | pest or weed control at 140 g/ha [%]
4 | COCC(F)(F)c1ccc(-c2ccc(Cl)c(C(=O)O)n2)c(Cl)c1 [F179, 3-chloro-6-(2-chloro-4-(1,1-difluoro-2-methoxyethyl)phenyl)picolinic acid] | 0 to 29

Same assay, conditions: post-emergence, 336 h, CIRAR: canada thistle (Cirsium arvense), 140 g ai/ha, 14 days after application, read-out: Visual Growth Reduction (%) 14 Days After Application, CIRAR

Row | Structure (SMILES) | pest or weed control at 140 g/ha [%]
5 | COCC(F)(F)c1ccc(-c2ccc(Cl)c(C(=O)O)n2)c(Cl)c1 [F179, 3-chloro-6-(2-chloro-4-(1,1-difluoro-2-methoxyethyl)phenyl)picolinic acid] | 0 to 29

Same assay, conditions: post-emergence, 336 h, CYPES: yellow nutsedge (Cyperus esculentus), 140 g ai/ha, 14 days after application, read-out: Visual Growth Reduction (%) 14 Days After Application, CYPES

Row | Structure (SMILES) | pest or weed control at 140 g/ha [%]
6 | COCC(F)(F)c1ccc(-c2ccc(Cl)c(C(=O)O)n2)c(Cl)c1 [F179, 3-chloro-6-(2-chloro-4-(1,1-difluoro-2-methoxyethyl)phenyl)picolinic acid] | 0 to 29

Same assay, conditions: post-emergence, 336 h, DIGSA: crabgrass (Digitaria sanguinalis), 140 g ai/ha, 14 days after application, read-out: Visual Growth Reduction (%) 14 Days After Application, DIGSA

Row | Structure (SMILES) | pest or weed control at 140 g/ha [%]
7 | COCC(F)(F)c1ccc(-c2ccc(Cl)c(C(=O)O)n2)c(Cl)c1 [F179, 3-chloro-6-(2-chloro-4-(1,1-difluoro-2-methoxyethyl)phenyl)picolinic acid] | 0 to 29

Same assay, conditions: post-emergence, 336 h, ECHCG: barnyardgrass (Echinochloa crus-galli), 140 g ai/ha, 14 days after application, read-out: Visual Growth Reduction (%) 14 Days After Application, ECHCG

Row | Structure (SMILES) | pest or weed control at 140 g/ha [%]
8 | COC(=O)c1nc(-c2c(C=O)cc(OC)c(O)c2Cl)ccc1Cl [F228, Methyl 3-chloro-6-(2-chloro-6-formyl-3-hydroxy-4-methoxyphenyl) picolinate] | 0 to 29
9 | COCC(F)(F)c1ccc(-c2ccc(Cl)c(C(=O)O)n2)c(Cl)c1 [F179, 3-chloro-6-(2-chloro-4-(1,1-difluoro-2-methoxyethyl)phenyl)picolinic acid] | 0 to 29

Same assay, conditions: post-emergence, 336 h, IPOHE: ivy-leaf morning glory (Ipomoea hederacea), 140 g ai/ha, 14 days after application, read-out: Visual Growth Reduction (%) 14 Days After Application, IPOHE

Row | Structure (SMILES) | pest or weed control at 140 g/ha [%]
10 | COC(=O)c1nc(-c2c(C=O)cc(OC)c(O)c2Cl)ccc1Cl [F228, Methyl 3-chloro-6-(2-chloro-6-formyl-3-hydroxy-4-methoxyphenyl) picolinate] | 0 to 29
11 | COCC(F)(F)c1ccc(-c2ccc(Cl)c(C(=O)O)n2)c(Cl)c1 [F179, 3-chloro-6-(2-chloro-4-(1,1-difluoro-2-methoxyethyl)phenyl)picolinic acid] | 95 to 100

Same assay, conditions: post-emergence, 336 h, KCHSC: kochia (Bassia scoparia), 140 g ai/ha, 14 days after application, read-out: Visual Growth Reduction (%) 14 Days After Application, KCHSC

Row | Structure (SMILES) | pest or weed control at 140 g/ha [%]
12 | COC(=O)c1nc(-c2c(C=O)cc(OC)c(O)c2Cl)ccc1Cl [F228, Methyl 3-chloro-6-(2-chloro-6-formyl-3-hydroxy-4-methoxyphenyl) picolinate] | 0 to 29
13 | COCC(F)(F)c1ccc(-c2ccc(Cl)c(C(=O)O)n2)c(Cl)c1 [F179, 3-chloro-6-(2-chloro-4-(1,1-difluoro-2-methoxyethyl)phenyl)picolinic acid] | 60 to 74

Same assay, conditions: post-emergence, 336 h, ORYSA: rice (Oryza sativa), 140 g ai/ha, 14 days after application, read-out: Visual Growth Reduction (%) 14 Days After Application, ORYSA

Row | Structure (SMILES) | pest or weed control at 140 g/ha [%]
14 | COC(=O)c1nc(-c2c(C=O)cc(OC)c(O)c2Cl)ccc1Cl [F228, Methyl 3-chloro-6-(2-chloro-6-formyl-3-hydroxy-4-methoxyphenyl) picolinate] | 0 to 29
15 | COCC(F)(F)c1ccc(-c2ccc(Cl)c(C(=O)O)n2)c(Cl)c1 [F179, 3-chloro-6-(2-chloro-4-(1,1-difluoro-2-methoxyethyl)phenyl)picolinic acid] | 0 to 29

Same assay, conditions: post-emergence, 336 h, SETFA: giant foxtail (Setaria faberi), 140 g ai/ha, 14 days after application, read-out: Visual Growth Reduction (%) 14 Days After Application, SETFA

Row | Structure (SMILES) | pest or weed control at 140 g/ha [%]
16 | COC(=O)c1nc(-c2c(C=O)cc(OC)c(O)c2Cl)ccc1Cl [F228, Methyl 3-chloro-6-(2-chloro-6-formyl-3-hydroxy-4-methoxyphenyl) picolinate] | 0 to 29
17 | COCC(F)(F)c1ccc(-c2ccc(Cl)c(C(=O)O)n2)c(Cl)c1 [F179, 3-chloro-6-(2-chloro-4-(1,1-difluoro-2-methoxyethyl)phenyl)picolinic acid] | 0 to 29

Same assay, conditions: post-emergence, 336 h, SORVU: grain sorghum (Sorghum vulgare), 140 g ai/ha, 14 days after application, read-out: Visual Growth Reduction (%) 14 Days After Application, SORVU

Row | Structure (SMILES) | pest or weed control at 140 g/ha [%]
18 | COC(=O)c1nc(-c2c(C=O)cc(OC)c(O)c2Cl)ccc1Cl [F228, Methyl 3-chloro-6-(2-chloro-6-formyl-3-hydroxy-4-methoxyphenyl) picolinate] | 0 to 29
19 | COCC(F)(F)c1ccc(-c2ccc(Cl)c(C(=O)O)n2)c(Cl)c1 [F179, 3-chloro-6-(2-chloro-4-(1,1-difluoro-2-methoxyethyl)phenyl)picolinic acid] | 0 to 29

Same assay, conditions: post-emergence, 336 h, STEME: common chickweed (Stellaria media), 140 g ai/ha, 14 days after application, read-out: Visual Growth Reduction (%) 14 Days After Application, STEME

Row | Structure (SMILES) | pest or weed control at 140 g/ha [%]
20 | COC(=O)c1nc(-c2c(C=O)cc(OC)c(O)c2Cl)ccc1Cl [F228, Methyl 3-chloro-6-(2-chloro-6-formyl-3-hydroxy-4-methoxyphenyl) picolinate] | 0 to 29
21 | COCC(F)(F)c1ccc(-c2ccc(Cl)c(C(=O)O)n2)c(Cl)c1 [F179, 3-chloro-6-(2-chloro-4-(1,1-difluoro-2-methoxyethyl)phenyl)picolinic acid] | 0 to 29

Same assay, conditions: post-emergence, 336 h, TRZAS: wheat, spring (Triticum aestivum), 140 g ai/ha, 14 days after application, read-out: Visual Growth Reduction (%) 14 Days After Application, TRZAS

Row | Structure (SMILES) | pest or weed control at 140 g/ha [%]
22 | COC(=O)c1nc(-c2c(C=O)cc(OC)c(O)c2Cl)ccc1Cl [F228, Methyl 3-chloro-6-(2-chloro-6-formyl-3-hydroxy-4-methoxyphenyl) picolinate] | 0 to 29
23 | COCC(F)(F)c1ccc(-c2ccc(Cl)c(C(=O)O)n2)c(Cl)c1 [F179, 3-chloro-6-(2-chloro-4-(1,1-difluoro-2-methoxyethyl)phenyl)picolinic acid] | 0 to 29

Same assay, conditions: post-emergence, 336 h, blackgrass (Alopecurus myosuroides), 14 Days After Application, 140 g ai/ha, read-out: Visual Growth Reduction (%) ALOMY

Row | Structure (SMILES) | pest or weed control at 140 g/ha [%]
24 | COC(=O)c1nc(-c2c(C=O)cc(OC)c(O)c2Cl)ccc1Cl [F228, Methyl 3-chloro-6-(2-chloro-6-formyl-3-hydroxy-4-methoxyphenyl) picolinate] | 0 to 29

Same assay, conditions: post-emergence, 336 h, canada thistle (Cirsium arvense), 14 Days After Application, 140 g ai/ha, read-out: Visual Growth Reduction (%) CIRAR

Row | Structure (SMILES) | pest or weed control at 140 g/ha [%]
25 | COC(=O)c1nc(-c2c(C=O)cc(OC)c(O)c2Cl)ccc1Cl [F228, Methyl 3-chloro-6-(2-chloro-6-formyl-3-hydroxy-4-methoxyphenyl) picolinate] | 0 to 29

Same assay, conditions: post-emergence, 336 h, crabgrass (Digitaria sanguinalis), 14 Days After Application, 140 g ai/ha, read-out: Visual Growth Reduction (%) DIGSA

Row | Structure (SMILES) | pest or weed control at 140 g/ha [%]
26 | COC(=O)c1nc(-c2c(C=O)cc(OC)c(O)c2Cl)ccc1Cl [F228, Methyl 3-chloro-6-(2-chloro-6-formyl-3-hydroxy-4-methoxyphenyl) picolinate] | 0 to 29

Same assay, conditions: post-emergence, 336 h, lambsquarters (Chenopodium album), 14 Days After Application, 140 g ai/ha, read-out: Visual Growth Reduction (%) CHEAL

Row | Structure (SMILES) | pest or weed control at 140 g/ha [%]
27 | COC(=O)c1nc(-c2c(C=O)cc(OC)c(O)c2Cl)ccc1Cl [F228, Methyl 3-chloro-6-(2-chloro-6-formyl-3-hydroxy-4-methoxyphenyl) picolinate] | 0 to 29

Same assay, conditions: post-emergence, 336 h, redroot pigweed (Amaranthus retroflexus), 14 Days After Application, 140 g ai/ha, read-out: Visual Growth Reduction (%) AMARE

Row | Structure (SMILES) | pest or weed control at 140 g/ha [%]
28 | COC(=O)c1nc(-c2c(C=O)cc(OC)c(O)c2Cl)ccc1Cl [F228, Methyl 3-chloro-6-(2-chloro-6-formyl-3-hydroxy-4-methoxyphenyl) picolinate] | 0 to 29

Same assay, conditions: post-emergence, 336 h, wild oat (Avena fatua), 14 Days After Application, 140 g ai/ha, read-out: Visual Growth Reduction (%) AVEFA

Row | Structure (SMILES) | pest or weed control at 140 g/ha [%]
29 | COC(=O)c1nc(-c2c(C=O)cc(OC)c(O)c2Cl)ccc1Cl [F228, Methyl 3-chloro-6-(2-chloro-6-formyl-3-hydroxy-4-methoxyphenyl) picolinate] | 0 to 29

Same assay, conditions: post-emergence, 336 h, yellow nutsedge (Cyperus esculentus), 14 Days After Application, 140 g ai/ha, read-out: Visual Growth Reduction (%) CYPES

Row | Structure (SMILES) | pest or weed control at 140 g/ha [%]
30 | COC(=O)c1nc(-c2c(C=O)cc(OC)c(O)c2Cl)ccc1Cl [F228, Methyl 3-chloro-6-(2-chloro-6-formyl-3-hydroxy-4-methoxyphenyl) picolinate] | 0 to 29
